What all share (assay): combination Emax (second highest fraction inhibited in the dose matrix, 72 h); higher = more inhibition; extreme values may be limits of the assay
Experiment [1] concerns BFTC-905 (Bladder Carcinoma). The method in brief:
(§1)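 Cell lines in DMEM/F12 or RPMI with 10% FBS were plated in 1536-well plates, held 24 hours at 37°C, 5% CO2, then given two-drug dose matrices for 72 hours (DMSO typically 0.2%). Viability was read by CellTiter-Glo 2.0 luminescence and scaled as inhibition from 0 (vehicle wells) to 1 (blank wells). Combination Emax is the second-highest inhibition in the matrix; Bliss excess is observed combination effect minus expected EA + EB − EA·EB, EA and EB being single-agent effects.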

In experiment [2] the test system is BL-41 (Burkitt's Lymphoma). The method in brief:
as §1

The test system of experiment [3] is CAMA-1 (Breast Carcinoma). The method in brief:
as §1

For experiment [4], the system named is COLO-678 (Colorectal Carcinoma). The method in brief: as §1
In experiment [5] the test system is DND-41 (T-Lymphoblastic Leukemia). The method in brief: as §1
In experiment [6] the test system is EVSA-T (Breast Carcinoma). The method in brief:
as §1

Experiment [7] deals with KCL-22 (Chronic Myelogenous Leukemia). The method in brief:
as §1

Experiment [8] has as its system KYSE-180 (Esophageal Squamous Cell Carcinoma). The method in brief: as §1
In the next experiment the test system is LN-18 (Glioblastoma). The method in brief: as §1
The next experiment deals with MEL-JUSO (Melanoma). The method in brief: as §1
Experiment [9] concerns MKN28 (Gastric Carcinoma). The method in brief:
as §1

The subject of experiment [10] is MS751 (Cervical Carcinoma). The method in brief:
as §1

Experiment [11] relates to NCI-H1792 (Lung Adenocarcinoma). The method in brief: as §1
In a further experiment the test system is NCI-H2818 (Mesothelioma). The method in brief: as §1
For experiment [12], the system named is NCI-H847 (Small Cell Lung Carcinoma). The method in brief:
as §1

Experiment [13] has as its system PANC-08-13 (Pancreatic Carcinoma). The method in brief:
as §1

Experiment [14] deals with SW837 (Colorectal Carcinoma). The method in brief:
as §1

A further experiment concerns TC-71 (Ewing's Sarcoma). The method in brief: as §1
A further experiment relates to U251 (Low Grade Glioma). The method in brief: as §1
The next experiment relates to WM-115 (Melanoma). The method in brief:
as §1

Here are results for five compounds from the supplement of paper PMC11061612.

Regarding `CCN(CCO)CCCOc1ccc2c(Nc3cc(CC(=O)Nc4cccc(F)c4)[nH]n3)ncnc2c1` [AZD2811] + O=C(c1cc(Cc2n[nH]c(=O)c3ccccc23)ccc1F)N1CCN(C(=O)C2CC2)CC1 [Olaparib] (first compound max 1 µM, 7x7, partner max 10 µM), the “combination Emax” value in experiment [1] is 0.502; in experiment [2], 0.603; in [3] it was 0.206; in experiment [4] it was 0.153; in experiment [5], 0.369; in experiment [6] it was 0.31. Also, the “combination Emax” value is 0.417 in [7]; 0.176 in experiment [8]; 0.287 in the experiment with LN-18 (Glioblastoma); 0.243 with MEL-JUSO (Melanoma); 0.238 in experiment [9]; 0.243 in experiment [10]. For the same compound, the “combination Emax” value was 0.175 in [11]; 0.234 with NCI-H2818 (Mesothelioma); 0.956 in [12]; 0.166 in experiment [13]; 0.183 in experiment [14]; 0.755 in the experiment with TC-71 (Ewing's Sarcoma). Besides, the “combination Emax” value with U251 (Low Grade Glioma) came out at 0.273; in the experiment on WM-115 (Melanoma) it was 0.259.

With `Cc1c2c(nn1C)CSCc1cc(n(C)n1)CSc1cc(c3ccccc3c1)OCCCc1c(C(=O)O)n(C)c3c-2c(Cl)ccc13` [AZD5991] + CN(C)CCCOc1ccc(-c2ccc3ncc4c(c3c2)n(C2CCOCC2)c(=O)n4C)cn1 [AZD0156] (first compound max 1 µM, 7x7, partner max 1 µM), the “combination Emax” value in experiment [1] stood at 0.273; in experiment [2], 1; in experiment [3] it was 0.555; in [4], 0.152; in [5], 0.158; in experiment [6] it was 1. The “combination Emax” value in [7] was found to be 0.926; in experiment [8] it was 0.934; with LN-18 (Glioblastoma), 0.514; with MEL-JUSO (Melanoma), 0.439; in experiment [9], 0.275; in experiment [10], 0.859. For the same compound, the “combination Emax” value in experiment [11] amounted to 0.345; in the experiment on NCI-H2818 (Mesothelioma) it was 0.355; in experiment [12] it was 0.57; in experiment [13], 0.211; in experiment [14], 0.208; with TC-71 (Ewing's Sarcoma), 0.463. Further, the “combination Emax” value was found to be 0.607 in the experiment with U251 (Low Grade Glioma) and 0.244 in the experiment on WM-115 (Melanoma).

In the case of `CN(C)CCCOc1ccc(-c2ccc3ncc4c(c3c2)n(C2CCOCC2)c(=O)n4C)cn1` [AZD0156] + O=C(c1cc(Cc2n[nH]c(=O)c3ccccc23)ccc1F)N1CCN(C(=O)C2CC2)CC1 [Olaparib] (first compound max 3 µM, partner max 3 µM), the “combination Emax” value in experiment [1] is 0.544; in experiment [2] it was 0.366; in experiment [3], 0.285; in [4] it was 0.216; in experiment [5] it was 0.372; in experiment [6], 0.234. The “combination Emax” value in experiment [7] was found to be 0.457; in experiment [8] it was 0.233; with LN-18 (Glioblastoma), 0.203; with MEL-JUSO (Melanoma), 0.115; in experiment [9], 0.0496; in experiment [10], 0.232. For the same compound, the “combination Emax” value in experiment [11] was 0.267; in the experiment on NCI-H2818 (Mesothelioma), 0.38; in experiment [12] it was 0.64; in experiment [13] it was 0.241; in experiment [14], 0.185; with TC-71 (Ewing's Sarcoma), 0.804. In addition, the “combination Emax” value was 0.294 in the experiment on U251 (Low Grade Glioma) and 0.356 in the experiment on WM-115 (Melanoma).

`CC(=O)Nc1cccc(-n2c(=O)n(C3CC3)c(=O)c3c(Nc4ccc(I)cc4F)n(C)c(=O)c(C)c32)c1` [Trametinib] + Cc1nc(-c2cn3c(n2)-c2ccc(-c4cnn(C(C)(C)C(N)=O)c4)cc2OCC3)n(C(C)C)n1 [Taselisib] (first compound max 1 µM, 7x7, partner max 10 µM): the “combination Emax” value in experiment [1] is 1; in experiment [2] it was 0.319; in experiment [3], 0.491; in experiment [4], 0.608; in experiment [5], 0.369; in experiment [6] it was 0.947. Besides, the “combination Emax” value in experiment [7] stood at 0.801; in experiment [8], 0.638; in the experiment with LN-18 (Glioblastoma), 0.847; in the experiment on MEL-JUSO (Melanoma), 0.863; in experiment [9], 0.708; in experiment [10], 0.438. Besides, the “combination Emax” value turned out to be 1 in experiment [11]; 0.428 with NCI-H2818 (Mesothelioma); 0.782 in experiment [12]; 0.655 in experiment [13]; 0.738 in [14]; 0.714 in the experiment with TC-71 (Ewing's Sarcoma). Further, the “combination Emax” value is 0.848 in the experiment with U251 (Low Grade Glioma) and 0.951 in the experiment with WM-115 (Melanoma).

Take `CN(CCO)CC[C@H](CSc1ccccc1)Nc1ccc(S(=O)(=O)NC(=O)c2ccc(N3CCC([C@@H](O)c4ccccc4-c4ccc(Cl)cc4)CC3)cc2)cc1S(=O)(=O)C(F)(F)F` [AZD4320] + C[C@@H]1COCCN1C2=NC(=NC(=C2)C3(CC3)[S@](=N)(=O)C)C4=C5C=CNC5=NC=C4 [AZD6738] (first compound max 1 µM, 7x7, partner max 10 µM): the “combination Emax” value is 0.926 in experiment [1]; 1 in experiment [2]; 0.658 in [3]; 0.11 in experiment [4]; 1 in experiment [5]; 0.213 in experiment [6]. The “combination Emax” value was 0.976 in experiment [7]; 0.747 in experiment [8]; 0.847 in the experiment on LN-18 (Glioblastoma); 0.642 in the experiment with MEL-JUSO (Melanoma); 0.442 in [9]; 0.378 in experiment [10]. The “combination Emax” value in experiment [11] was 0.777; with NCI-H2818 (Mesothelioma), 0.567; in [12] it was 1; in experiment [13], 0.636; in experiment [14] it was 0.585; with TC-71 (Ewing's Sarcoma), 1. Further, the results for the “combination Emax” value in the experiment on U251 (Low Grade Glioma) and in the experiment on WM-115 (Melanoma) were 0.534 and 0.769, respectively.
